From patent US10450326B2, “Thiazolopyrimidinone compounds and preparation methods and use thereof” (PEKING UNIVERSITY, priority 2015, dated 2019)

Target: T1, α7 nAChR (Homo sapiens, UniProt P36544)
T1 construct: expressed in transfected cells; host or cells: Xenopus oocytes (cRNA injection)
Assay: α7 nAChR positive allosteric modulator activity assay, voltage clamp in Xenopus oocytes with 100 μM ACh
Type: cell-based
Conditions: for activity at 10 µM: at 10 μM compound, current induced by 100 μM ACh, Xenopus oocytes expressing α7 nAChR, read-out: Max Mod (%, at 10 μM); for EC50: potentiation of current induced by 100 μM ACh, Hill equation fit
Procedure: The experimental process was as follows:
(1) Xenopus oocytes were injected with cRNA encoding α7 nAChR in order to express α7 nAChR on the cell membrane successfully;
(2) 100 μM ACh alone was added, and the α7 nAChR characteristic current caused by it was recorded as a control;
(5) The oocytes were incubated for 1 min with 10 μM compound, then 10 µM compound and 100 μM ACh were added simultaneously and the current induced by ACh was recorded at this time;
(6) The differences between the two currents in terms of peak intensity and duration were compared, with the ratio of peak intensity of the two currents representing the adjustment effect (Enhance Rate), in order to determine whether the compound had PAM activity, if the activity was good, then the subsequent test was carried out;
(7) Concentration gradient was set and the effects of compounds at different concentrations on the α7 nAChR characteristic current induced by 100 μM ACh were evaluated. Several determinations were carried out at the same concentration, and the results were presented in the form of “mean±standard deviation”;
(8) The EC50 (median maximum effect concentration) values and Max mod (the current amplitude caused by the maximal degree of adjustable endogenous agonist acetylcholine) values of the compounds and other activity data were obtained by Hill equation Inormalized=Emax/(1+(EC50/C)nH).
The amplitude of the peak current is only normalized by the amplitude produced by 100 μM ACh and different concentrations of LD486. […] It can be seen from FIG. 3 that the Hill equation is used to fit the dose-response curve and calculate the kinetic parameters.

T1 sequence (P36544 23-502): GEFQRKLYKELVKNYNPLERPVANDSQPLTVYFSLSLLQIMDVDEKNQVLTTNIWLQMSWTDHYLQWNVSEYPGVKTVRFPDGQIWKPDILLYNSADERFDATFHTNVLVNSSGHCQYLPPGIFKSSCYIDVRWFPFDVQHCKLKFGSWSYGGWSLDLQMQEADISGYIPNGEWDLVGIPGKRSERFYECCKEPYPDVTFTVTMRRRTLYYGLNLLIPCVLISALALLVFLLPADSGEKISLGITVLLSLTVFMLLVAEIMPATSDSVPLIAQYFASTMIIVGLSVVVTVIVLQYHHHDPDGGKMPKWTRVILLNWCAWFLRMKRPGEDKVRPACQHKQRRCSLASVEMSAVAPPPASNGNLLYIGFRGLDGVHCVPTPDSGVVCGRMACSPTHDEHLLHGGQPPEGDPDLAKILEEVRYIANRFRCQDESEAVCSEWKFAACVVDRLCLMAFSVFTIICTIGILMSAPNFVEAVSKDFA

| SMILES | activity at 10 µM [%] | EC50 [µM] |
| --- | --- | --- |
| Cc1ccc(Nc2nc3ncn(-c4c(C)cccc4Br)c(=O)c3s2)cc1F [JWX-A-C0106, 6-(2-Bromo-6-methylphenyl)-2-((3-fluoro-4-methylphenyl)amino)thiazolo[4,5-d]pyrimidin-7(6H)-one] | 200 | 10 |
| Cc1ccc(Nc2nc3ncn(-c4c(C)cccc4F)c(=O)c3s2)cc1F [JWX-A-C0111, 6-(2-fluoro-6-methylphenyl)-2-((3-fluoro-4-methylphenyl)amino)thiazolo[4,5-d]pyrimidin-7(6H)-one] | 110 | – |
| Cc1ccc(-n2cnc3nc(Nc4ccc(C)c(F)c4)sc3c2=O)c(Cl)c1 [JWX-A-C0229, 6-(2-Chloro-4-methylphenyl)-2-((3-fluoro-4-methylphenyl)amino)thiazolo[4,5-d]pyrimidin-7(6H)-one] | 110 | – |
| Cc1ccc(Nc2nc3ncn(-c4ccccc4Cl)c(=O)c3s2)cc1F [JWX-A-C0831, 6-(2-Chlorophenyl)-2-((3-fluoro-4-methylphenyl)amino)thiazolo[4,5-d]pyrimidin-7(6H)-one] | 380 | 10 |
| Cc1cccc(Cl)c1-n1cnc2nc(Nc3ccc(OC(F)(F)F)cc3)sc2c1=O [JWX-A-C0901, 6-(2-Chloro-6-methylphenyl)-2-((4-(trifluoromethoxy)phenyl)amino)thiazolo[4,5-d]pyrimidin-7(6H)-one] | 200 | 10 |
| Cc1cccc(Cl)c1-n1cnc2nc(Nc3cccc(OC(F)(F)F)c3)sc2c1=O [JWX-A-C0907, 6-(2-Chloro-6-methylphenyl)-2-((3-(trifluoromethoxy)phenyl)amino)thiazolo[4,5-d]pyrimidin-7(6H)-one] | 150 | 10 |
| Cc1cccc(Cl)c1-n1cnc2nc(Nc3ccc(F)c(F)c3)sc2c1=O [JWX-A-C0915, 6-(2-Chloro-6-methylphenyl)-2-((3,4-difluorophenyl)amino)thiazolo[4,5-d]pyrimidin-7(6H)-one] | 300 | 10 |
| Cc1cc(C)cc(Nc2nc3ncn(-c4c(C)cccc4Cl)c(=O)c3s2)c1 [JWX-A-C1017, 6-(2-Chloro-6-methylphenyl)-2-((3,5-dimethylphenyl)amino)thiazolo[4,5-d]pyrimidin-7(6H)-one] | – | 5.02 |
| Cc1cccc(Cl)c1-n1cnc2nc(NC(=O)c3ccc(Cl)cc3)sc2c1=O [JWX-A-C1020, N-(6-(2-Chloro-6-methylphenyl)-7-oxo-6,7-dihydrothiazolo[4,5-d]pyrimidin-2-yl)-4-chlorobenzamide] | 350 | 10 |
| Cc1ccc(Nc2nc3ncn(-c4ccccc4C)c(=O)c3s2)cc1F [JWX-A-C1026, 6-(o-tolyl)-2-((3-fluoro-4-methylphenyl)amino)-thiazolo[4,5-d]pyrimidin-7(6H)-one] | 300 | 10 |
| Cc1cccc(Cl)c1-n1cnc2nc(NC(=O)c3ccc(Br)cc3)sc2c1=O [JWX-A-C1122, N-(6-(2-chloro-6-methylphenyl)-7-oxo-6,7-dihydrothiazolo[4,5-d]pyrimidin-2-yl)-4-bromobenzamide] | 1000 | 9.8 |
| Cc1cccc(Cl)c1-n1cnc2nc(NC(=O)c3ccc(C(F)(F)F)cc3)sc2c1=O [JWX-A-C1128, N-(6-(2-Chloro-6-methylphenyl)-7-oxo-6,7-dihydrothiazolo[4,5-d]pyrimidin-2-yl)-4-(trifluoromethyl)benzamide] | 200 | 10 |
| Cc1cccc(Cl)c1-n1cnc2nc(NC(=O)c3ccc(OC(F)(F)F)cc3)sc2c1=O [JWX-A-C1205, N-(6-(2-Chloro-6-methylphenyl)-7-oxo-6,7-dihydrothiazolo[4,5-d]pyrimidin-2-yl)-4-(trifluoromethoxy)benzamide] | 980 | 10.8 |
| Cc1cccc(Cl)c1-n1cnc2nc(-c3ccccc3)sc2c1=O [JWX-C1200, 6-(2-Chloro-6-methylphenyl)-2-phenylthiazolo[4,5-d]pyrimidin-7(6H)-one] | 110 | – |
| Cc1cc(C)c(-n2cnc3nc(Nc4ccccc4)sc3c2=O)c(C)c1 [LD252, 6-Mesityl-2-(phenylamino)thiazolo[4,5-d]pyrimidin-7(6H)-one] | 110 | – |
| Cc1cc(C)c(-n2cnc3nc(Nc4ccccn4)sc3c2=O)c(C)c1 [LD286, 6-Mesityl-2-(pyridin-2-ylamino)thiazolo[4,5-d]pyrimidin-7(6H)-one] | 110 | – |
| Cc1cc(C)c(-n2cnc3nc(Nc4ccncc4)sc3c2=O)c(C)c1 [LD293, 6-Mesityl-2-(pyridin-4-ylamino)thiazolo[4,5-d]pyrimidin-7(6H)-one] | 110 | – |
| CSc1nc2ncn(-c3c(Cl)cccc3Cl)c(=O)c2s1 [LD493, 6-(2,6-Dichlorophenyl)-2-(methylthio) thiazolo[4,5-d]pyrimidin-7(6H)-one] | 110 | – |
| CSc1nc2nnn(-c3c(Cl)cccc3Cl)c(=O)c2s1 [LD496, 3-(2,6-Dichlorophenyl)-6-(methylthio) thiazolo[4,5-d][1,2,3]triazin-4(3H)-one] | 110 | – |
| Cc1cccc(Cl)c1-n1cnc2nc(SCc3ccccc3F)sc2c1=O [LYH150309-2F, 6-(2-Chloro-6-methylphenyl)-2-((2-fluorobenzyl)thio)thiazolo[4,5-d]pyrimidin-7(6H)-one] | 620 | 4.18 |
| Cc1cccc(Cl)c1-n1cnc2nc(SCc3cccc(F)c3)sc2c1=O [LYH150310-3F, 6-(2-Chloro-6-methylphenyl)-2-((3-fluorobenzyl)thio)thiazolo[4,5-d]pyrimidin-7(6H)-one] | 500 | 10 |
| Cc1cccc(Cl)c1-n1cnc2nc(SCc3ccc(F)cc3)sc2c1=O [LYH150312-4F, 6-(2-Chloro-6-methylphenyl)-2-((4-fluorobenzyl)thio)thiazolo[4,5-d]pyrimidin-7(6H)-one] | 670 | 2.87 |
| Cc1ccc(CSc2nc3ncn(-c4c(C)cccc4Cl)c(=O)c3s2)cc1 [LYH150318-4Me, 6-(2-Chloro-6-methylphenyl)-2-((4-methylbenzyl)thio)thiazolo[4,5-d]pyrimidin-7(6H)-one] | 300 | 10 |
| Cc1cccc(CSc2nc3ncn(-c4c(C)cccc4Cl)c(=O)c3s2)c1 [LYH150324-3Me, 6-(2-Chloro-6-methylphenyl)-2-((3-methylbenzyl)thio)thiazolo[4,5-d]pyrimidin-7(6H)-one] | 230 | 10 |
| Cc1ccccc1CSc1nc2ncn(-c3c(C)cccc3Cl)c(=O)c2s1 [LYH150325-2Me, 6-(2-Chloro-6-methylphenyl)-2-((2-methylbenzyl)thio)thiazolo[4,5-d]pyrimidin-7(6H)-one] | 370 | 10 |
| COc1ccc(CSc2nc3ncn(-c4c(C)cccc4Cl)c(=O)c3s2)cc1 [LYH150326-4OCH3, 6-(2-Chloro-6-methylphenyl)-2-((4-methoxybenzyl)thio)thiazolo[4,5-d]pyrimidin-7(6H)-one] | 300 | 10 |
| Cc1cccc(Cl)c1-n1cnc2nc(SCc3ccc(C(F)(F)F)cc3)sc2c1=O [LYH150409-4CF3, 6-(2-Chloro-6-methylphenyl)-2-((4-(trifluoromethyl)benzyl)thio)thiazolo[4,5-d]pyrimidin-7(6H)-one] | 140 | 10 |
